The values below come from PMC7033200, “Annexin A1 accounts for an anti-inflammatory binding target of sesamin metabolites” (NPJ Science of Food, 2020).

Assay [1] relates to TNFα production in U937 cells. Kind of assay: TNFα production in PMA/LPS-stimulated U937 cells (ELISA). The assay is classed as cell-based, human. As for the experimental part: (§1) For enzyme-linked immunosorbent assay (ELISA) assays, U937 cells (control or ANX A1 KD) were seeded on 96-well plates and stimulated by adding 100 nmol L^−1 phorbol myristate acetate (Sigma-Aldrich, MO, USA) for 24 h. The cells were treated for 12 h with LPS (100 ng mL^−1) with or without adding the indicated sesamin, SC1, or SC2 and/or PD98059 concentrations. The cell culture supernatants were collected, and TNFα or ANX A1 production was measured using ELISA (TNFα: R&D Systems; ANX A1: USCN, Wuhan, China) according to the manufacturer’s instructions.

For assay [2], the system named is extracellular ANX A1 release from U937 cells. Kind of assay: Extracellular release of ANX A1 from U937 cells (ELISA). In kind it is cell-based, human. The following applies: PMA/LPS-treated U937 cells. Here is the method: as §1
Assay [3] relates to CCl4-treated ANX A1-KO mice. The assay is described as follows: CCl4-induced liver damage and inflammation in ANX A1-KO mice. The assay is classed as in vivo, mouse (C57BL/6J). The following applies: SC1 50 mg kg^−1 intraperitoneally twice. An excerpt: ANX A1-deficient mice (C57BL/6J) were generated by homologous recombination at Trans Genic Inc. (Fukuoka, Japan), as shown in Fig. S4. The vector targeting ANX A1 for deleting the coding region (exons 3–6) containing selectable neomycin-resistance (Neo) and PGK promoter genes was used. The targeting vector contained the 3.0 kbp of the 5′ arm flanking sequence and 4.5 kbp of the 3′ arm flanking sequence. The PGK-Neor gene was deleted by crossing with the CAG-flp mouse.[58]
All protocols for animal procedures were approved by the Ethics Committee of Animal Experiments in accordance with the Internal Regulations on Animal Experiments at Keio University and Suntory Holdings Ltd, which are based on the Law for the Humane Treatment and Management of Animals (Law No. 105, 1 October 1973, as amended on 30 May 2014). Male C57BL/6J wild-type (WT) mice were purchased from CLEA Japan Inc. (Tokyo, Japan). WT and ANX A1-KO mice at 7 to 9 weeks of age received an intraperitoneal injection of vehicle (corn oil, 16.7 mL kg^−1) or CCl4 (50 μL kg^−1). To evaluate the effect of sesamin, vehicle (olive oil, 5 mL kg^−1) or sesamin (25 mg kg^−1) was orally administered twice at 1 h before and 7 h after CCl4 injection. To evaluate the effect of SC1, vehicle (ethanol dissolved in corn oil at a ratio of 1:19, 5 mL kg^−1) or SC1 (50 mg kg^−1) was intraperitoneally administered twice as mentioned above. Mice were euthanized after 12 or 24 h […] CCl4 injection before collecting blood and liver samples. Plasma AST, ALT, or LDH were measured using L-type AST J2, L-type ALT J2 or L-type LD J (Wako, Osaka, Japan), respectively. The liver tissues were fixed with 10% formalin, embedded in paraffin sectioned to 3–4 μm thickness and mounted on slides. Liver sections were de-paraffinized with xylene and re-hydrated with alcohols. The staining was performed with eosin solution for the cytoplasm and Mayer’s haematoxylin solution or monoclonal galectin-3 antibody (1:100, BioLegend, CA, USA). Slides were observed under a light microscope (BX52, Olympus, Japan), and images were analysed using LUMINA VISION (Mitani Corporation, Japan).
Production of TNFα or MCP-1 in the plasma or liver was measured using a V-PLEX Proinflammatory Panel 1 Mouse Kit or U-PLEX Mouse MCP-1 assay Kit (Meso Scale Diagnostics, USA), respectively. Plasma or liver tissues homogenised in phosphate-buffered saline (Nacalai Tesque) were applied into the pre-coated plate with antibodies against target proteins before labelling with secondary antibodies conjugated to chemiluminescence. The signal intensity was measured using an analyser (SECTOR Imager 6000, Meso Scale Diagnostics, USA).
Total RNA of the liver was extracted using an RNeasy Mini Kit (Qiagen, USA), and the cDNAs were prepared using High-Capacity cDNA Reverse Transcription Kits (Thermo Fisher Scientific, USA). Quantitative reverse transcription-PCR was performed according to the manufacturer’s instructions using the TaqMan® Gene Expression Assay System (Applied Biosystems, USA) with a 7900HT Fast Real Time PCR System (Applied Biosystems, USA). The levels of target mRNAs were normalised using the expression of the 18S ribosomal RNA. The primer IDs are listed in Supplementary Table 1.

Assay [4] relates to ANX A1 mutants (G210W, F221S, and V251W). The assay is described as follows: ITC binding analysis using recombinant ANX A1 point mutants. On the set-up: species or system human. The following applies: V251W in contrast with ANX A1 WT. As for the experimental part:
ITC experiments were performed at 298 K with ITC buffer (20 mmol L^−1 Tris-HCl (pH 7.5), 100 mmol L^−1 NaCl, 2% dimethyl sulfoxide) using a MicroCal iTC200 (Malvern). SC1 or SC2 were dissolved at 2 mmol L^−1 with ITC buffer and titrated into 1 μmol L^−1 of ANX A1 protein with or without 2 mmol L^−1 EDTA (for apo-ANX A1) or 3 mmol L^−1 CaCl2 (for Ca^2+-bound ANX A1). The titration was performed by injecting 2 µL of the syringe solution at intervals of 120 s. The binding isotherms were analysed using SEDPHAT.[54]
Supplementary Fi g u re 3. Isothermal titra tion calori met ry analyses using ANX A1 […]
Analyses of binding affinity between SC1 and ANX A1 (wild type (WT) or point mutants (G210W, F221S, or V251W)) using isothermal titration calorimetry ( ITC). […]
(1 picture or pasted object on this page, not shown here)

Assay [5] deals with T1, recombinant ANX V.
T1 construct: purchased Abcam
The assay is described as follows: Affinity nanobeads binding assay with recombinant annexin V.

Assay [6] concerns TNFα production in ANX A1 KD U937 cells. Kind of assay: TNFα production in ANX A1 knockdown U937 cells (ELISA). The assay is classed as cell-based, human. The following applies: U937 cells with knocked down ANX A1. As for the experimental part:
U937 cells were maintained in RPMI-1640 medium (Gibco/Thermo Fisher Scientific, MA, USA) supplemented with 10% fetal bovine serum. To generate a stable ANX A1-KD cell line, lentivirus vectors encoding a control or shRNA sequence targeting ANX A1 (Supplementary Methods) were transfected into 293FT cells. The lentivirus was prepared according to the manufacturer’s instructions (Invitrogen, MA, USA). U937 cells were infected with the lentivirus, and a stable cell line was selected by maintaining the cells in medium containing 10 μg mL^−1 blasticidin (Invitrogen) for 1 week.
as §1
On the technique in general: An ELISA detects its analyte on a solid surface through an enzyme-linked reagent.

Usually IC50 stands for the point on the concentration scale where inhibition reaches its midpoint. Turning to `Oc1ccc(C2OCC3C(c4ccc5c(c4)OCO5)OCC23)cc1O` (stereo not drawn) [SC1, (7α,7′α,8α,8′α)-3′,4′-methylenedioxy-7,9′:7′,9-diepoxylignane-3,4-diol], in assay [1] (Homo sapiens, U-937, PMA-differentiated U937 cells, LPS, 12 h, ELISA), the IC50 was 2200 nM. The “inhibition of TNFα production induced by LPS and PMA” value in assay [1] (U937 cells, dose-dependent) is “significantly inhibited”. For the same compound, the “cellular release of ANX A1” value in assay [2] is listed as “significantly enhanced”. Also, in assay [3] (12 h after CCl4, ANX A1-null), the “MCP-1 expression in the liver” value is “no effect was observed” and the “TNFα expression in the liver” value is “no effect was observed”. Besides, in assay [3] (24 h, ANX A1-null), the “plasma AST” value is given as “not”. Besides, in assay [4], the “binding activity to SC1 of ANX A1 mutants” value is on record as “disrupted the binding activity”. Moreover, the “binding of recombinant ANX V to beads” value in assay [5] is “no binding”. The “inhibitory effects on TNFα production in ANX A1 knockdown cells” value in assay [6] was “disappeared”.
